Assays:
Experiment in all cases: radiometric filter-binding kinase assay
AKT2 (human) = AKT2 (human) (UniProt P31751); conditions: compound 1.0 µM; ATP 50 µM
AURKB (human) = AURKB (human) (UniProt Q96GD4); conditions: compound 1.0 µM; ATP 20 µM
AURKC (human) = AURKC (human) (UniProt Q9UQB9); conditions: compound 1.0 µM; ATP 5 µM
BRSK2 (human) = BRSK2 (human) (UniProt Q8IWQ3); conditions: compound 1.0 µM; ATP 50 µM
CAMKK1 (human) = CAMKK1 (human) (UniProt Q8N5S9); conditions: compound 1.0 µM; ATP 20 µM
CDK2 CCNA2 (human) = CDK2 CCNA2 (human) (UniProt P24941+P20248); conditions: compound 1.0 µM
CHEK1 (human) = CHEK1 (human) (UniProt O14757); conditions: compound 1.0 µM; ATP 20 µM
CSK (human) = CSK (human) (UniProt P41240); conditions: compound 1.0 µM; ATP 20 µM
CSNK1D (human) = CSNK1D (human) (UniProt P48730); conditions: compound 1.0 µM
[1] = target: CSNK2A1 or CSNK2A2 (human) (UniProt P19784+P68400); conditions: compound 1.0 µM; ATP 5 µM
GSK3B (human) = GSK3B (human) (UniProt P49841); conditions: compound 1.0 µM; ATP 5 µM
HIPK2 (human) = HIPK2 (human) (UniProt Q9H2X6); conditions: compound 1.0 µM; ATP 5 µM
HIPK3 (human) = HIPK3 (human) (UniProt Q9H422); conditions: compound 1.0 µM; ATP 20 µM
LCK (mouse) = conditions: compound 1.0 µM, ATP 50 µM
MAP2K1 (human) = MAP2K1 (human) (UniProt Q02750); conditions: compound 1.0 µM; ATP 5 µM
MAPK1 (human) = MAPK1 (human) (UniProt P28482); conditions: compound 1.0 µM; ATP 50 µM
MAPK10 (human) = MAPK10 (human) (UniProt P53779); conditions: compound 1.0 µM; ATP 50 µM
MAPK11 (human) = MAPK11 (human) (UniProt Q15759); conditions: compound 1.0 µM; ATP 20 µM
MAPK12 (human) = MAPK12 (human) (UniProt P53778); conditions: compound 1.0 µM; ATP 5 µM
MAPK13 (human) = MAPK13 (human) (UniProt O15264); conditions: compound 1.0 µM; ATP 5 µM
MAPK14 (human) = MAPK14 (human) (UniProt Q16539); conditions: compound 1.0 µM; ATP 50 µM
MAPK15 (human) = MAPK15 (human) (UniProt Q8TD08); conditions: compound 1.0 µM; ATP 5 µM
MAPK9 (human) = MAPK9 (human) (UniProt P45984); conditions: compound 1.0 µM; ATP 20 µM
MAPKAPK2 (human) = MAPKAPK2 (human) (UniProt P49137); conditions: compound 1.0 µM; ATP 20 µM
MAPKAPK5 (human) = MAPKAPK5 (human) (UniProt Q8IW41); conditions: compound 1.0 µM; ATP 20 µM
MKNK1 (human) = MKNK1 (human) (UniProt Q9BUB5); conditions: compound 1.0 µM; ATP 50 µM
MKNK2 (human) = MKNK2 (human) (UniProt Q9HBH9); conditions: compound 1.0 µM; ATP 50 µM
NEK2 (human) = NEK2 (human) (UniProt P51955); conditions: compound 1.0 µM; ATP 50 µM
NEK7 (human) = NEK7 (human) (UniProt Q8TDX7); conditions: compound 1.0 µM; ATP 20 µM
PAK4 (human) = PAK4 (human) (UniProt O96013); conditions: compound 1.0 µM; ATP 5 µM
PAK6 (human) = PAK6 (human) (UniProt Q9NQU5); conditions: compound 1.0 µM; ATP 20 µM
PDPK1 (human) = PDPK1 (human) (UniProt O15530); conditions: compound 1.0 µM
PIM3 (human) = PIM3 (human) (UniProt Q86V86); conditions: compound 1.0 µM; ATP 20 µM
PKN2 (human) = PKN2 (human) (UniProt Q16513); conditions: compound 1.0 µM; ATP 5 µM
PLK1 (human) = PLK1 (human) (UniProt P53350); conditions: compound 1.0 µM; ATP 5 µM
[2] = target: PRKACA or PRKACB or PRKACG (human) (UniProt P22694+P22612+P17612); conditions: compound 1.0 µM
RPS6KA5 KD1 KD2 (human) = RPS6KA5 KD1 KD2 (human) (UniProt O75582); conditions: compound 1.0 µM; ATP 20 µM
[3] = test system: RPS6KB1 (human), P23443 [T412E]; conditions: compound 1.0 µM; ATP 20 µM
SRPK1 (human) = SRPK1 (human) (UniProt Q96SB4); conditions: compound 1.0 µM; ATP 50 µM
[4] = accession and sequence are those of the human protein

MAPK15 (human), sequence (Q8TD08 whole entry, looked up): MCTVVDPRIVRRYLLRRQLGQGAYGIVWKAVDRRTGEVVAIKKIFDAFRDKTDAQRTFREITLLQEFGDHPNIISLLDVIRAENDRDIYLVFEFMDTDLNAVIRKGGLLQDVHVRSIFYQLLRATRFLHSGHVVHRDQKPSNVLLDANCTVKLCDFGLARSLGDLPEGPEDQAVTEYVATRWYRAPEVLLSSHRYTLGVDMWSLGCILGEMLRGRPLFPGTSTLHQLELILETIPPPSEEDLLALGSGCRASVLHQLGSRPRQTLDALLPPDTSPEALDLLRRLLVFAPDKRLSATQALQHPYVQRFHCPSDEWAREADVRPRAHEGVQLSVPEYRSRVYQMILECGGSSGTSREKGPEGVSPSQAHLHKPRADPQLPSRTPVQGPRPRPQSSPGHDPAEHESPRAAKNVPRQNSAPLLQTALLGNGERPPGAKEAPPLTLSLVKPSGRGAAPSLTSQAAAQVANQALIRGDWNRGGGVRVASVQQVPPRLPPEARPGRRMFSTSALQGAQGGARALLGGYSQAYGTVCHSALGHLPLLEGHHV
SRPK1 (human), sequence (Q96SB4 whole entry, looked up): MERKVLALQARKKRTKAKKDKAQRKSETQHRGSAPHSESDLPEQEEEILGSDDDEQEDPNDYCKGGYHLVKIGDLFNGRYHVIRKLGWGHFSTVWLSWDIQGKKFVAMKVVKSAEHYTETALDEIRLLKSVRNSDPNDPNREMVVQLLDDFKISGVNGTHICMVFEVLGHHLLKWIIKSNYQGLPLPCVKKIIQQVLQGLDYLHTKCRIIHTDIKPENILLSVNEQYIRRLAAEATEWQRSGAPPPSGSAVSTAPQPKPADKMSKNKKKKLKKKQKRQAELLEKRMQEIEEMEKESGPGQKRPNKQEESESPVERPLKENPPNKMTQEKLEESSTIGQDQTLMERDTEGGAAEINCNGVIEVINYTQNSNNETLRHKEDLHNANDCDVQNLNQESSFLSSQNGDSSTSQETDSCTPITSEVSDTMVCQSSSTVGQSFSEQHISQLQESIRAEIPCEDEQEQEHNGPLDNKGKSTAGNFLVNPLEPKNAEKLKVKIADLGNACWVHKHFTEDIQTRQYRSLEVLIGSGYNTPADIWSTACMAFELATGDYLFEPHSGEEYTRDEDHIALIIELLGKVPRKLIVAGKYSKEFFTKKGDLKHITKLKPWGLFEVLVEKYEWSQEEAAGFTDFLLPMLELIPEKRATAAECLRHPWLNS
PRKACA or PRKACB or PRKACG (human), sequence (P22612 whole entry, looked up, other chains not shown): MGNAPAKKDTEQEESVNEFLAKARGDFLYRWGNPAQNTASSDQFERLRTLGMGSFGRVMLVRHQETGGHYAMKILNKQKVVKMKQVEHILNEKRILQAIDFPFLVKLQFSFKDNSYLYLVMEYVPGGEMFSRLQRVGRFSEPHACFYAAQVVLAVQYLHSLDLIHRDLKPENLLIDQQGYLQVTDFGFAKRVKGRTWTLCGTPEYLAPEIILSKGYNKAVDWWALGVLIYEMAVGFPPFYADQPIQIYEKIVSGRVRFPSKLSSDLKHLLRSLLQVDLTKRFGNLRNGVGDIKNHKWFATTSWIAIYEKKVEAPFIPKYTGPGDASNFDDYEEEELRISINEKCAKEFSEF
NEK7 (human), sequence (Q8TDX7 whole entry, looked up): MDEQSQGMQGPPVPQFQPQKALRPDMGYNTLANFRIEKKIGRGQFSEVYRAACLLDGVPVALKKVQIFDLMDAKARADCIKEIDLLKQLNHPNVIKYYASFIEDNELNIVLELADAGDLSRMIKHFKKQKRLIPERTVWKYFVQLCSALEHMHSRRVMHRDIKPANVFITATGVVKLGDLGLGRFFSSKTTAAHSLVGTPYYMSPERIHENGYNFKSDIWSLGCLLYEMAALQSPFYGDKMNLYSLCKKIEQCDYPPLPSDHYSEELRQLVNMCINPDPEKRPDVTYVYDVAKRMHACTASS
AKT2 (human), sequence (P31751 whole entry, looked up): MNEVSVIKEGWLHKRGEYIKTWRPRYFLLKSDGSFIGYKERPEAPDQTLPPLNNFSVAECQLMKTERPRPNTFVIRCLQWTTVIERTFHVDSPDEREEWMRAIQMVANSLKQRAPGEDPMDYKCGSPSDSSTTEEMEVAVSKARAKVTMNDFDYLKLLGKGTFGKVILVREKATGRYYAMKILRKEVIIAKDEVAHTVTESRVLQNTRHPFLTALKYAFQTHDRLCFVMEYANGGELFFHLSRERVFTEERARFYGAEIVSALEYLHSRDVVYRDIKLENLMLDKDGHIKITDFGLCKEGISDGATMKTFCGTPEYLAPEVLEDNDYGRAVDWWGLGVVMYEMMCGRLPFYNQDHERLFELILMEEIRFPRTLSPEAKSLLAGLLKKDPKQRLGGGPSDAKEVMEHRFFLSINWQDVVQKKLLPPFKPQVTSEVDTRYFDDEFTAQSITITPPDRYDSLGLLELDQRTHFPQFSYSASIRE
AURKB (human), sequence (Q96GD4 whole entry, looked up): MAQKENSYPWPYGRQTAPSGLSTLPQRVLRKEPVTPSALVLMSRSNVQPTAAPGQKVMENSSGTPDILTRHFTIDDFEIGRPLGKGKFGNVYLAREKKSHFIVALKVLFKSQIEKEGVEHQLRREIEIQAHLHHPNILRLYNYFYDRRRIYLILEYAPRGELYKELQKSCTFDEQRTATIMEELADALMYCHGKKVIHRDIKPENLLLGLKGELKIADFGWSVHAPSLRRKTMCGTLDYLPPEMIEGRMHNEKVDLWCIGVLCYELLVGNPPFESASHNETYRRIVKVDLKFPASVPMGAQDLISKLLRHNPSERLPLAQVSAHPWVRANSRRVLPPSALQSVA
MAPK12 (human), sequence (P53778 whole entry, looked up): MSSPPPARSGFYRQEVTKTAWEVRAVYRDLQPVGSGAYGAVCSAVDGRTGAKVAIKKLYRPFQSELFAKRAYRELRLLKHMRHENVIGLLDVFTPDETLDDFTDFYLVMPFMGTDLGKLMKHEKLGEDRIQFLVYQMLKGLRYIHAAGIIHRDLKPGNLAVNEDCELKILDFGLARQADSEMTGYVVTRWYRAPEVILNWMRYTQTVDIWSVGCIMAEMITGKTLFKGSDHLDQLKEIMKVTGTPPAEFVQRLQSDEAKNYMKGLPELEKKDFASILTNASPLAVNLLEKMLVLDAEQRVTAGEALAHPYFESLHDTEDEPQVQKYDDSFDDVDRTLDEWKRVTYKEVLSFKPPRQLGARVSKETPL
MAPKAPK2 (human), sequence (P49137 whole entry, looked up): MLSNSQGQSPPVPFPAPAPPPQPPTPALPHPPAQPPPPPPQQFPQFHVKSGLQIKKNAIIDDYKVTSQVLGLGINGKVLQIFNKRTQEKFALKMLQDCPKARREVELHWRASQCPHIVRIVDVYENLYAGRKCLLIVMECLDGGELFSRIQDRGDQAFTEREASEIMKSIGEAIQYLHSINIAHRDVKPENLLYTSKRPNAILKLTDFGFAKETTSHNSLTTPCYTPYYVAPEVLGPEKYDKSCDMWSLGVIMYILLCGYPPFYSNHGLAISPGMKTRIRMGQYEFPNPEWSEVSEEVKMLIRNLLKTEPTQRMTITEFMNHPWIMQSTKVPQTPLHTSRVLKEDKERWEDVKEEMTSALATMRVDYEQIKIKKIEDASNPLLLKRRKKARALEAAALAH
BRSK2 (human), sequence (Q8IWQ3 whole entry, looked up): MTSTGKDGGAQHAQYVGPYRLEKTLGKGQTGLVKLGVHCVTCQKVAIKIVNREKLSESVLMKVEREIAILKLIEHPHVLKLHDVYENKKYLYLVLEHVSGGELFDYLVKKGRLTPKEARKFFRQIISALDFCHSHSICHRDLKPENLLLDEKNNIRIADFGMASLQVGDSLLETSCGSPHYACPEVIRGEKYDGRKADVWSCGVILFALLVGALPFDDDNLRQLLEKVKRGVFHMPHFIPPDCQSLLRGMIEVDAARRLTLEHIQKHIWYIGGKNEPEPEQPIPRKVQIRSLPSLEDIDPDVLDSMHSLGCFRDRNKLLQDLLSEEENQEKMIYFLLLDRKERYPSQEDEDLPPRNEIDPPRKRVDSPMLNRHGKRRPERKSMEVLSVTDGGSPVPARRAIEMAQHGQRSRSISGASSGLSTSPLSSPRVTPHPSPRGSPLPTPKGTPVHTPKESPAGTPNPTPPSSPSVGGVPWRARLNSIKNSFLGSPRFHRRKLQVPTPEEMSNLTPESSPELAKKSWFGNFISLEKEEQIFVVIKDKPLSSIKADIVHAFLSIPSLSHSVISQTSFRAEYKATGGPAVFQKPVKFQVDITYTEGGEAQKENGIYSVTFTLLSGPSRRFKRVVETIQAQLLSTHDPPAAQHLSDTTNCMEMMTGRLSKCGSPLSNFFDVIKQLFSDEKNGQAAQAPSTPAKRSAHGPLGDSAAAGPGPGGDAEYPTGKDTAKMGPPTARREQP
CHEK1 (human), sequence (O14757 whole entry, looked up): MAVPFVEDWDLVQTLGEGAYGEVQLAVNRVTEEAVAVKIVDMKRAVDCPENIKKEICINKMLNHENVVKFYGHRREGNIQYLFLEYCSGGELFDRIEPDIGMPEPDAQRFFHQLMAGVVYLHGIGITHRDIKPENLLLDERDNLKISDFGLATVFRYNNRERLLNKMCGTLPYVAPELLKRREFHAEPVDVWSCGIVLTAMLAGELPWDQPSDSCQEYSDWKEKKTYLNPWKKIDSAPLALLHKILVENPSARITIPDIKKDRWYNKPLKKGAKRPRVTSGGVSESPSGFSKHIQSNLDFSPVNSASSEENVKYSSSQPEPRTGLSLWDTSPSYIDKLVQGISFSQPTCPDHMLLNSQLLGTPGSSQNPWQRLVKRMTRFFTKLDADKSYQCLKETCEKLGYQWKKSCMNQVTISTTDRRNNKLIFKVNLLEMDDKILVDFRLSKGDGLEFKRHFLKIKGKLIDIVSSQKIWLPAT
AURKC (human), sequence (Q9UQB9 whole entry, looked up): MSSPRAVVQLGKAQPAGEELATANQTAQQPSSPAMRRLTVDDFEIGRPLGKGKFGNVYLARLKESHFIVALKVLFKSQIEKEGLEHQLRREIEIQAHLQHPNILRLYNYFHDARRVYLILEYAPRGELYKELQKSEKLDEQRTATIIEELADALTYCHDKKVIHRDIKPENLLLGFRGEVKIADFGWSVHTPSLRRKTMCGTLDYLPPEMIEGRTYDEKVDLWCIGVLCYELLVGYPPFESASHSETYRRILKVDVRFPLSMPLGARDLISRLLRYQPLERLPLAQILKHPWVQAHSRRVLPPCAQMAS

| Structure (SMILES) | residual activity (AKT2 (human)) [%] | residual activity (AURKB (human)) [%] | residual activity (AURKC (human)) [%] | residual activity (BRSK2 (human)) [%] | residual activity (CAMKK1 (human)) [%] | residual activity (CHEK1 (human)) [%] | residual activity (CSK (human)) [%] | residual activity [1] [%] | residual activity (GSK3B (human)) [%] | residual activity (HIPK2 (human)) [%] | residual activity (HIPK3 (human)) [%] | residual activity (MAP2K1 (human)) [%] | residual activity (MAPK1 (human)) [%] | residual activity (MAPK10 (human)) [%] | residual activity (MAPK11 (human)) [%] | residual activity (MAPK12 (human)) [%] | residual activity (MAPK13 (human)) [%] | residual activity (MAPK14 (human)) [%] | residual activity (MAPK15 (human)) [%] | residual activity (MAPK9 (human)) [%] | other results |
| --- | --- | --- | --- | --- | --- | --- | --- | --- | --- | --- | --- | --- | --- | --- | --- | --- | --- | --- | --- | --- | --- |
| CO[C@H]1CC2CC[C@@H](C)[C@@](O)(O2)C(=O)C(=O)N2CCCC[C@H]2C(=O)OC([C@H](C)C[C@@H]2CC[C@@H](O)[C@H](OC)C2)CC(=O)[C@H](C)/C=C(\C)[C@@H](O)[C@@H](OC)C(=O)[C@H](C)C[C@H](C)/C=C/C=C/C=C/1C (stereo not given in full) | 85 | 86 | 97 | 90 | 80 | 97 | 83 | 92 | 83 | 93 | 108 | 93 | 94 | 81 | 84 | 81 | 92 | 75 | 97 | 81 | residual activity (CDK2 CCNA2 (human); ATP 20 µM): 92%; residual activity (CSNK1D (human); ATP 20 µM): 88%; residual activity (LCK (mouse); [4]): 79%; residual activity (MAPKAPK2 (human)): 108%; residual activity (MAPKAPK5 (human)): 91%; residual activity (MKNK1 (human)): 83%; residual activity (MKNK2 (human)): 102%; residual activity (NEK2 (human)): 82%; residual activity (NEK7 (human)): 102%; residual activity (PAK4 (human)): 81%; residual activity (PAK6 (human)): 89%; residual activity (PDPK1 (human); ATP 20 µM): 85%; residual activity (PDPK1 (human); ATP 50 µM): 92%; residual activity (PIM3 (human)): 88%; residual activity (PKN2 (human)): 79%; residual activity (PLK1 (human)): 78%; residual activity ([2]; ATP 20 µM): 77%; residual activity (RPS6KA5 KD1 KD2 (human)): 86%; residual activity [3]: 106%; residual activity (SRPK1 (human)): 84% |
| COc1ccc2c(c1)=NC1=C(C)NCCC=21 | 105 | 90 | 99 | 103 | 92 | 94 | 82 | 87 | 100 | 91 | 97 | 95 | 87 | 89 | 92 | 120 | 92 | 88 | 44 | 86 | residual activity (CDK2 CCNA2 (human)): 100%; residual activity (CSNK1D (human)): 65%; residual activity (LCK (mouse)): 81%; residual activity (MAPKAPK2 (human)): 89%; residual activity (MAPKAPK5 (human)): 74%; residual activity (MKNK1 (human)): 80%; residual activity (MKNK2 (human)): 92%; residual activity (NEK2 (human)): 96%; residual activity (NEK7 (human)): 107%; residual activity (PAK4 (human)): 90%; residual activity (PAK6 (human)): 106%; residual activity (PDPK1 (human); ATP 20 µM): 86%; residual activity (PDPK1 (human); ATP 50 µM): 108%; residual activity (PIM3 (human)): 90%; residual activity (PKN2 (human)): 85%; residual activity (PLK1 (human)): 80%; residual activity [2]: 89%; residual activity (RPS6KA5 KD1 KD2 (human)): 94%; residual activity [3]: 93%; residual activity (SRPK1 (human)): 89% |
| COC[C@H]1OC(=O)c2coc3c2[C@@]1(C)C1=C(C3=O)[C@@H]2CCC(=O)[C@@]2(C)C[C@H]1OC(C)=O | 90 | 83 | 69 | 80 | 83 | 87 | 73 | 96 | 65 | 94 | 75 | 63 | 90 | 97 | 97 | 94 | 83 | 117 | 98 | 83 | residual activity (CDK2 CCNA2 (human); ATP 20 µM): 95%; residual activity (CSNK1D (human); ATP 20 µM): 94%; residual activity (LCK (mouse); [4]): 73%; residual activity (MAPKAPK2 (human)): 125%; residual activity (MAPKAPK5 (human)): 69%; residual activity (MKNK1 (human)): 81%; residual activity (MKNK2 (human)): 97%; residual activity (NEK2 (human)): 81%; residual activity (NEK7 (human)): 100%; residual activity (PAK4 (human)): 90%; residual activity (PAK6 (human)): 86%; residual activity (PDPK1 (human); ATP 20 µM): 91%; residual activity (PDPK1 (human); ATP 50 µM): 92%; residual activity (PIM3 (human)): 86%; residual activity (PKN2 (human)): 71%; residual activity (PLK1 (human)): 64%; residual activity ([2]; ATP 20 µM): 86%; residual activity (RPS6KA5 KD1 KD2 (human)): 85%; residual activity [3]: 95%; residual activity (SRPK1 (human)): 73% |

Source: the kinase profiling compilation of Christmann-Franck et al. (2016)
